Laboratory results published in ChEMBL document CHEMBL1201862, “PubChem BioAssay data set” (2004).
Activity calls are given as the source filed them.

How the values were obtained:
Heat shock protein HSP90 = Heat shock protein HSP90 (Homo sapiens, UniProt P07900+P08238); test: Hsp90 blockade concentration-response – dose response (AID 712); format: functional
Large T antigen = Large T antigen (Simian virus 40, UniProt P03070); format: functional, Betapolyomavirus macacae;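 note: Confirmatory-stage PubChem screen for compounds that inhibit SV40 T antigen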
[1] = molecular target: T1, Replicative DNA helicase DnaB (Mycobacterium tuberculosis, UniProt P9WMR3); test: DnaB intein splicing inhibitors, dose response, biochemical, cell-free fluorescence (AID 449749); format: functional
T1 sequence (P9WMR3 whole entry): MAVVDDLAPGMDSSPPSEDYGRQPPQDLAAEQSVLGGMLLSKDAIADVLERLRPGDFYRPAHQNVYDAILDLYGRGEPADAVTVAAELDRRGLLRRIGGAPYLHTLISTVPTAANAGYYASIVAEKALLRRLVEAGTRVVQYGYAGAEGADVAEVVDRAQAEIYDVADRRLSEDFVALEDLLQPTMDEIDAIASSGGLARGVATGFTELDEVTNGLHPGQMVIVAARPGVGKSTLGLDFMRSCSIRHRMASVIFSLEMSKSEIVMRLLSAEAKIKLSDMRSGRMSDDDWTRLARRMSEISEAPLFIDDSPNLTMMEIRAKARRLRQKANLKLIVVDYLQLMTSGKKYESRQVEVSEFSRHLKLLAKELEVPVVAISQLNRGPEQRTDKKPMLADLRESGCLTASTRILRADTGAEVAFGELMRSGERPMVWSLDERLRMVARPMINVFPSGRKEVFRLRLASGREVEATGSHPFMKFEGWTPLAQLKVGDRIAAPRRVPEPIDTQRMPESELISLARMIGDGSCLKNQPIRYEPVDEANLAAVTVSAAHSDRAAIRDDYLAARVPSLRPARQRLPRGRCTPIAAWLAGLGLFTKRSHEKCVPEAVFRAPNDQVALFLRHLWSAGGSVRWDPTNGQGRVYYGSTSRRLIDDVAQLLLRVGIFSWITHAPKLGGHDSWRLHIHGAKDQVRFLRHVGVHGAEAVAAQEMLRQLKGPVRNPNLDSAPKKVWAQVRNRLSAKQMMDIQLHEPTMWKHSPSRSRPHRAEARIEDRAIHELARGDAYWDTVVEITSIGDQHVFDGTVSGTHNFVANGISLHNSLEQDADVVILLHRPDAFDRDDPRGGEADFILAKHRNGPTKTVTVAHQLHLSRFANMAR

Protein RecA = molecular target: T2, Protein RecA (Mycobacterium tuberculosis, UniProt P9WHJ3); test: Fluorescence Cell-Free Homogeneous Dose Retest to Identify Inhibitors of RecA-Intein Splicing Activity. [Related pubchem assays (depositor defined):AID2097, AID2223, AID489010, AID492950]; format: functional
T2 sequence (P9WHJ3 whole entry): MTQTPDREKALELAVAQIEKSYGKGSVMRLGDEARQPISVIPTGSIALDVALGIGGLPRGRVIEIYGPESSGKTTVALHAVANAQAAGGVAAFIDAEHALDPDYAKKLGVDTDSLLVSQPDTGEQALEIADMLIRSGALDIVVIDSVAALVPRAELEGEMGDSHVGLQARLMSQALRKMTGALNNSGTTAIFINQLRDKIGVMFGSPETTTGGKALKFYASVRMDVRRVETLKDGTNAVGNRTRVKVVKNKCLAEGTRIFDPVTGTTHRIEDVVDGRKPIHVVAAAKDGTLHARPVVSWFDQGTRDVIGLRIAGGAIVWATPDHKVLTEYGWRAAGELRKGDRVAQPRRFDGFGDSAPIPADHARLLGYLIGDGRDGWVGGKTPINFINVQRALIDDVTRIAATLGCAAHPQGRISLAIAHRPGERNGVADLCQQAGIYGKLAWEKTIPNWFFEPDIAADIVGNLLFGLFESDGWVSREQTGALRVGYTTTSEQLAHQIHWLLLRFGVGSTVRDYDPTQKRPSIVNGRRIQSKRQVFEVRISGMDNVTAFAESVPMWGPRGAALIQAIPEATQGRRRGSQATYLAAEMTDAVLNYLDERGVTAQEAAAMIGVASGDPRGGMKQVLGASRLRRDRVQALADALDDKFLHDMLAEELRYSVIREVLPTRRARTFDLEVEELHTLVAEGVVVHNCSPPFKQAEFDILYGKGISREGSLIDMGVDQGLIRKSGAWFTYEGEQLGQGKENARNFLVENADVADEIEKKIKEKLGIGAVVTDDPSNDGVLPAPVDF

Protein Tat = molecular target: T3, Protein Tat (Human immunodeficiency virus type 1 group M subtype B (isolate HXB2)(HIV-1), UniProt P04608); format: functional;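 note: tat binding to TAR RNA read out by fluorescence polarization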
T3 sequence (P04608 whole entry): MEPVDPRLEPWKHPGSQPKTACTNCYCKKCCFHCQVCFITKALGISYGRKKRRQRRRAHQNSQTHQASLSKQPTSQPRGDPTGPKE

[2] = viability loss in THP-1 monocytes – THP-1 cells, cytotoxicity control for Vif-APOBEC3G degradation inhibitor project, dose response (AID 1117359); format: functional; conditions: THP-1
[3] = molecular target: E3 ubiquitin-protein ligase Mdm2 (Homo sapiens, UniProt Q00987); test: MDM2-luc reporter signal enhancers, multi-concentration potency testing, MDM2 ubiquitin-protein ligase inhibitor program, whole-cell format, luminescence detection, 384-well microplate (AID 1394); format: functional;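 note: MDM2 E3 inhibitors raise luminescence so EC50 is for signal enhancement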
[4] = molecular target: T4, Microphthalmia-associated transcription factor (Homo sapiens, UniProt O75030); test: reducers of TRPM1 reporter luminescence, concentration series – cell-based, SK-MEL-5, cherry-picked, set 3, MITF inhibitor project, dose response (AID 493073); format: functional;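 note: SK-MEL-5 melanoma cells with luciferase driven by the MITF target TRPM1 promoter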
T4 sequence (O75030 whole entry): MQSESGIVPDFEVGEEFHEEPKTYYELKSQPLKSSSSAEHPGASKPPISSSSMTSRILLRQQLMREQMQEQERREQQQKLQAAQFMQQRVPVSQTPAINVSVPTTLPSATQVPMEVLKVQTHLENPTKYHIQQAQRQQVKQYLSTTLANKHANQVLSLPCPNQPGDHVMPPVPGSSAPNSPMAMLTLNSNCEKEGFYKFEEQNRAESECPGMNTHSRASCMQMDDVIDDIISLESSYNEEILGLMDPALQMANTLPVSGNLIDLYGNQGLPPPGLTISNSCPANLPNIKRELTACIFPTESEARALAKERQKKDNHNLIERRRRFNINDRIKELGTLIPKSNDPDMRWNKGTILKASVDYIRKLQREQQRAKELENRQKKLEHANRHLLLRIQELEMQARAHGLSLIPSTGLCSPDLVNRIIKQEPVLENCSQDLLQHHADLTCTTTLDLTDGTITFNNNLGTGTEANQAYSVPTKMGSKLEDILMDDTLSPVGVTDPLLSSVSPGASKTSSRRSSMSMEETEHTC

[5] = NIH-3T3 fibroblast cytotoxicity, dose response, cytotoxicity control, cell-based, fluorescence, Alamar Blue, secondary assay (AID 2327); format: functional;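 note: NIH-3T3 mouse fibroblasts cultured with fluconazole at 8 µg/mL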
[6] = fluconazole-exposed Candida albicans growth modulators – fluorescence, retest, confirmation (AID 2467); format: functional, cell-based
[7] = molecular target: T5, Mannose-6-phosphate isomerase (Homo sapiens, UniProt P34949); test: MPI inhibition at elevated mannose 6-phosphate – biochemical, fluorescence intensity, high mannose 6-phosphate, primary screen (AID 1220)
T5 sequence (P34949 whole entry): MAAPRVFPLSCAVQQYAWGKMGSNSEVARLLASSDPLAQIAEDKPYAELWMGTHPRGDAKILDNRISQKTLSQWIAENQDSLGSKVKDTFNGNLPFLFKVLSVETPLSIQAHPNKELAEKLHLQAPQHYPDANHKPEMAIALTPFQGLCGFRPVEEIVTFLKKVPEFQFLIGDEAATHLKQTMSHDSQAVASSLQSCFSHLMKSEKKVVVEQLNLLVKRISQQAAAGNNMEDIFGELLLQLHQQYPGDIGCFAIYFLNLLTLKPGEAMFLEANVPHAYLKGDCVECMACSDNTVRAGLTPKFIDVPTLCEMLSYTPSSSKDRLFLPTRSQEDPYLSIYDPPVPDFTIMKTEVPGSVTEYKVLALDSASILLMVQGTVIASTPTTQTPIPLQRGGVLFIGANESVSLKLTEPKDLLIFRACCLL

[8] = molecular target: DNA dC->dU-editing enzyme APOBEC-3G (Homo sapiens, UniProt Q9HC16); test: Dose Response confirmation of small molecule APOBEC3G DNA Deaminase Inhibitors via a fluorescence-based single-stranded DNA deaminase assay. [Related pubchem assays (depositor defined):AID493012, AID493028]; format: functional
[9] = molecular target: T5, Mannose-6-phosphate isomerase; test: MPI enzyme activity inhibition – biochemical, fluorescence intensity, coupled assay, primary screen (AID 1209)
[10] = molecular target: T6, Calpain-2 catalytic subunit (Sus scrofa, UniProt P43367); test: m-calpain protease blockers, concentration series – biochemical, fluorogenic peptide substrate, dose response (AID 1420); format: functional
T6 sequence (P43367 whole entry): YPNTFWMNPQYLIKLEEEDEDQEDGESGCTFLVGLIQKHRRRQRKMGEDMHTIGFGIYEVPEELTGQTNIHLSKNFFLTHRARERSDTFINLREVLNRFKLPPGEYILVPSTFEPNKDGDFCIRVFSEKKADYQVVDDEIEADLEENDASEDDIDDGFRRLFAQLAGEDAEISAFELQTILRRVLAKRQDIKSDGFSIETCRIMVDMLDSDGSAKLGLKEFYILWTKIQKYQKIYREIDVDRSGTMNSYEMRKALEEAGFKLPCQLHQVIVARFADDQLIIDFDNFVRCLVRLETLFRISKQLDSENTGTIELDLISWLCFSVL

[11] = viability loss in Vero cells – cytotoxicity control for Vif-APOBEC3G degradation inhibitor project, dose response (AID 1117358); format: functional; conditions: Vero
NS3 = NS3 (Hepatitis C virus, UniProt A3EZJ3); test: PubChem AID 2173; parameters: species or system Hepacivirus hominis
[12] = molecular target: Solute carrier family 12 member 2/member 5 (Homo sapiens, UniProt P55011+Q9H2X9); test: KCC2 and NKCC1 inhibition by rubidium flux, cell-based, NKCC1 counter-screen (AID 1734); format: functional, HEK293
Genome polyprotein = Genome polyprotein (Hepatitis C virus, UniProt Q2Q167); test: disruption of hepatitis C core self-association – biochemical, TR-FRET, dose response (AID 2159); parameters: species or system Hepacivirus hominis;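 note: blocks dimerization of HCV core protein measured by TR-FRET between tagged core106 pairs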
Estrogen receptor = molecular target: T7, Estrogen receptor (Homo sapiens, UniProt P03372);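 note: potency for inhibiting coactivator peptide recruitment to the receptor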
T7 sequence (P03372 whole entry): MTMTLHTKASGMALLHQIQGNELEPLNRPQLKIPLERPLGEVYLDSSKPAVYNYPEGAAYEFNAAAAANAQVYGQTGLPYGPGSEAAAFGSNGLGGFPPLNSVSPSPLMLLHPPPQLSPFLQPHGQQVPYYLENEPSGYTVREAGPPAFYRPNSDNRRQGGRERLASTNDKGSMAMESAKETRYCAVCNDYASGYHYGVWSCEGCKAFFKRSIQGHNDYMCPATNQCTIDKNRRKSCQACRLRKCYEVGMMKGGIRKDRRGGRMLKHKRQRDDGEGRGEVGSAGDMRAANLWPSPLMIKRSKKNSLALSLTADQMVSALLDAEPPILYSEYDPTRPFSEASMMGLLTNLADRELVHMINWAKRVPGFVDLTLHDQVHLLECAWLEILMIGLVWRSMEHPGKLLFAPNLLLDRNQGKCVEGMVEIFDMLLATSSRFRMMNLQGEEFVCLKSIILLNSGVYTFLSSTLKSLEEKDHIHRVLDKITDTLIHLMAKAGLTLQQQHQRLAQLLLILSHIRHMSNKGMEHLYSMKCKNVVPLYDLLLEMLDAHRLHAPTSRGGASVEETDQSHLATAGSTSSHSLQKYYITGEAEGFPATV

[13] = molecular target: Dual specificity tyrosine-phosphorylation-regulated kinase 1A (Rattus norvegicus, UniProt Q63470); format: biochemical, Homo sapiens
[14] = molecular target: T8, Carboxy-terminal domain RNA polymerase II polypeptide A small phosphatase 1 (Homo sapiens, UniProt Q9GZU7); test: CTDSP1 inhibitors, concentration-response, biochemical, absorbance readout, ultra-high-throughput screen actives (AID 540297); format: functional
T8 sequence (Q9GZU7 whole entry): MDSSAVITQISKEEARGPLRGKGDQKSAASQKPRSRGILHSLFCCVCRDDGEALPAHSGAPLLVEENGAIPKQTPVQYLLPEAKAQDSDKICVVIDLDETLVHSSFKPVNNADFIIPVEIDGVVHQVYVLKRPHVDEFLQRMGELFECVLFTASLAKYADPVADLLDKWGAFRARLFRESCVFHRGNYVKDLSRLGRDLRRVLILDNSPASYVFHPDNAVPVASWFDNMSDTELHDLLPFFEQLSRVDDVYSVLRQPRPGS

Sequence of Large T antigen (P03070 whole entry): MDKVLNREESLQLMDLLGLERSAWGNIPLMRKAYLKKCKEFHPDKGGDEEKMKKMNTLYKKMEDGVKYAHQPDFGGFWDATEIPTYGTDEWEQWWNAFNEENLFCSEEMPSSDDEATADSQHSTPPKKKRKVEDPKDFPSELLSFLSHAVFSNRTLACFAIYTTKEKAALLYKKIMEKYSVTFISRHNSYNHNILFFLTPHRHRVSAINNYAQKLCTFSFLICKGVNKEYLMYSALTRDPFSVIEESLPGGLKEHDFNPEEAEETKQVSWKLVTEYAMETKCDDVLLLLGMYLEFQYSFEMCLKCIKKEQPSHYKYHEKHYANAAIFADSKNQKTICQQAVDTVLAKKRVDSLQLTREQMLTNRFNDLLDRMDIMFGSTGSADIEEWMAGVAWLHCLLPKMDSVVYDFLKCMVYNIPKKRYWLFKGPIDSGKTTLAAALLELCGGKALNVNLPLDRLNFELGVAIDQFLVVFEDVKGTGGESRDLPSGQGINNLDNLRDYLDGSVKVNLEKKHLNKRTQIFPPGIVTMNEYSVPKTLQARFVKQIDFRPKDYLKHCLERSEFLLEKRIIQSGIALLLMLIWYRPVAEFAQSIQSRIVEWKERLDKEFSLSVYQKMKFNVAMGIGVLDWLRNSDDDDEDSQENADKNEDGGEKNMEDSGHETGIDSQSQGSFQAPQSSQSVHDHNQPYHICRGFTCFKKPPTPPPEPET
Sequence of DNA dC->dU-editing enzyme APOBEC-3G (Q9HC16 whole entry): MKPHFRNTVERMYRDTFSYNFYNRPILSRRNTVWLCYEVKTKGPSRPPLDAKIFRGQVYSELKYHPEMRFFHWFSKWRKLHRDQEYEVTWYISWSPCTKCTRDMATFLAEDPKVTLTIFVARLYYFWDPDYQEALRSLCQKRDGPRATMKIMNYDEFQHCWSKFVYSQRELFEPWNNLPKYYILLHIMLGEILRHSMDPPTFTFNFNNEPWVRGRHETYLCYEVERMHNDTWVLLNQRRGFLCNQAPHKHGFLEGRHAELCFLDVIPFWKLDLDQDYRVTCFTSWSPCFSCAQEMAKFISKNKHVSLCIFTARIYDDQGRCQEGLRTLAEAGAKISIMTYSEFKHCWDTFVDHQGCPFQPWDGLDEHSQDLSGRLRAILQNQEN
Sequence of Genome polyprotein (Q2Q167 whole entry): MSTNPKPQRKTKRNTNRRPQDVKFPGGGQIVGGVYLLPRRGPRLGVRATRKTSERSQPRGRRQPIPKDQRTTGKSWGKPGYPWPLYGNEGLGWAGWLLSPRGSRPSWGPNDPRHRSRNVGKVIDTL
Sequence of E3 ubiquitin-protein ligase Mdm2 (Q00987 whole entry): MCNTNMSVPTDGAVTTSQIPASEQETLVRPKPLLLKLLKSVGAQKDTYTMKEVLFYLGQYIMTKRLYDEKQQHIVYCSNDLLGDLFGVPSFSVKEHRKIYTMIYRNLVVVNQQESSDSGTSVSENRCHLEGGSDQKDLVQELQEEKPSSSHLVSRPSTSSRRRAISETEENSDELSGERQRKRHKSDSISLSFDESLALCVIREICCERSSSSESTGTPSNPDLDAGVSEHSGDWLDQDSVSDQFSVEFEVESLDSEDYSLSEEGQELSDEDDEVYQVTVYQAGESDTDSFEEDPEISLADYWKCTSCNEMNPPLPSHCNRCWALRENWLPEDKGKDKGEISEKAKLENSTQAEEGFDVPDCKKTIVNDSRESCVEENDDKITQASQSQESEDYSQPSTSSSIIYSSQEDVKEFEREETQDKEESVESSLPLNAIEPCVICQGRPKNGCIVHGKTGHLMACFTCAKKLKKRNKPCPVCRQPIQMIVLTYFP
Sequence of NS3 (A3EZJ3 whole entry): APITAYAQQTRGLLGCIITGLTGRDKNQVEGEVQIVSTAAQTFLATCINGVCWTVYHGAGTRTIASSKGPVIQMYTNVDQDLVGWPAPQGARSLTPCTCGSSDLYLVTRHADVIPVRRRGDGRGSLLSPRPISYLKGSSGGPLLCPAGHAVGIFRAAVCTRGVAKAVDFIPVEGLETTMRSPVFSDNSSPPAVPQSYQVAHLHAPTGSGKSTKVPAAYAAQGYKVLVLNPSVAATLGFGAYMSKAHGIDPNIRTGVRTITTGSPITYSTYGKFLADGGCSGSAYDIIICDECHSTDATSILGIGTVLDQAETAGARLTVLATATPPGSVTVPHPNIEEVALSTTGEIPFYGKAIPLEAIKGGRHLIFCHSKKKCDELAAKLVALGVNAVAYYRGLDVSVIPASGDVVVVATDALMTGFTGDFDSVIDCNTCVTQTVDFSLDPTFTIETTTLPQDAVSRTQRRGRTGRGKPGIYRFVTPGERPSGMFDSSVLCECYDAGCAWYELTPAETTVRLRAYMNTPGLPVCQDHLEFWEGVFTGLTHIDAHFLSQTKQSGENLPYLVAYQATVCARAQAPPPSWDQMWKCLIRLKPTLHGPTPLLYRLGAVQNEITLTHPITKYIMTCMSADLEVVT

Oc1ccc(/N=C/c2ccc(O)c(O)c2)cc1
IC50 (Heat shock protein HSP90): 20.6061 µM
IC50 (Large T antigen): 9.16 µM (active)
AC50 [1]: 10.5 µM (inconclusive)
EC50 (Protein RecA): > 380 µM (inconclusive)
IC50 (Protein Tat): 15 µM (inconclusive)
CC50 [2]: 22.2 µM (active)

CC(C)CC(=O)/C=C/n1c(=S)oc2ccccc21
EC50 [3]: 1.2 µM (active)
AC50 [4]: 10.5 µM (active)

O=[N+]([O-])c1ccc2c(c1)nc(S)n2-c1ccccc1
EC50 [5]: > 150 µM (inactive)
EC50 [6]: 2.85 µM (active)
IC50 [7]: 39.6 µM (active)
IC50 [8]: 9.42 µM (active)

CCOc1cc(CNc2ccc(O)cc2)ccc1OCc1ccc(Cl)cc1Cl
IC50 [9]: > 50 µM (not active)
IC50 [10]: 7.31 µM (not active)
AC50 [1]: > 380 µM (inconclusive)
EC50 (Protein RecA): 331 µM (active)
IC50 (Protein Tat): 34 µM (inconclusive)
CC50 [2]: 13.9 µM (active)
CC50 [11]: > 40 µM (active)

CCOc1ccc(N2C(=O)C3Sc4nc(O)sc4C(/C=C/c4ccccc4)C3C2=O)cc1 (stereo not given)
IC50 (NS3): 15.4 µM (not active)
IC50 [12]: 0.3 µM (active)

CCC1(CC)NC(=O)N(CC(=O)Nc2sc3c(c2C(N)=O)CCC3)C1=O
IC50 (Genome polyprotein): > 49.8 µM (not active)
IC50 (Estrogen receptor): < 1.56 µM (active)
AC50 [13]: 32.9 µM (active)
IC50 [14]: 3.98 µM (active)
